From patent US20040204340A1, “Polyprolyl inhibitors of cyclophilin” (Guilford Pharmaceuticals, Inc., priority 2003, published 2004)

Tested on: cultured chick sensory neurons from dorsal root ganglia
Test: Chick dorsal root ganglion cultures and neurite outgrowth
Type: cell-based
Conditions: 1 mM, 48 h after treatment (FIGS. 4, 5)
Protocol: Dorsal root ganglia were dissected from chick embryos of ten day gestation. Whole ganglion explants were cultured on thin layer Matrigel-coated 12 well plates with Liebovitz L15 plus high glucose media supplemented with 2 mM glutamine and […], and also containing 10 μM cytosine 9-D arabinofuranoside (Ara C) at 37° C. in an environment containing 5% CO2. Twenty-four hours later, the DRGs were treated with various concentrations of nerve growth factor, immunophilin ligands or combinations of NFG plus drugs. Forty-eight hours after drug treatment, the ganglia were visualized under phase contrast or Hoffman Modulation contrast with a Zeiss Axiovert inverted microscope. Photomicrographs of the explants were made, and neurite outgrowth was quantitated. Neurites longer than the DRG diameter were counted as positive, with total number of neurites quantitated per each experimental condition. Three to four DRGs are cultured per well, and each treatment was performed in duplicate.

## Ac-Pro-Gly-Pro-Phe-NH2 (Ac-PGPF-NH2)
  Promotion of neurite outgrowth (neurotrophic effects): powerful neurotrophic effects

## Ac-Pro-Ala-Pro-Ala-NH2 (Ac-PAPA-NH2)
  Promotion of neurite outgrowth (neurotrophic effects): potent neurotrophic effects
